Data taken from patent publication US9004743B2, “Mixing device for creating an output mixture by mixing a first material and a second material” (Revalesio Corporation, priority 2006, dated 2015).
Where two headings read alike, the source gives them in different places.

Legend:
Tilapia = details: cited from earlier work
glutathione peroxidase = assay: Glutathione peroxidase study; assay type: biochemical; details: A340 nm, 25 degrees Celsius
Procedure: The inventive oxygen-enriched output fluid material was tested for the presence of hydrogen peroxide by testing the reactivity with glutathione peroxidase using a standard assay (Sigma). Briefly, glutathione peroxidase enzyme cocktail was constituted in deionized water and the appropriate buffers. Water samples were tested by adding the enzymatic reagents. Continuous spectrophotometric rate determination was made at A340 nm, and room temperature (25 degrees Celsius).

| reactivity with glutathione peroxidase (glutathione peroxidase) | SMILES | final increase in weight of the fish (Tilapia; high dissolved oxygen levels (approximately 7.0 ppm)) | final increase in weight of the fish (Tilapia; low DO levels (less than 2 ppm)) | reduction in growth rates (Tilapia; low DO versus high DO) | final increase in weight of the fish (Tilapia; mid-level DO (approximately 3.5 ppm)) | reduction in growth rates (Tilapia; mid-level DO versus high DO) |
| --- | --- | --- | --- | --- | --- | --- |
| – | O=O [dissolved oxygen, oxygen] | 19 grams | 1.5 g | 92% | 5 grams | 74% |
| strong reactivity | OO [hydrogen peroxide] | – | – | – | – | – |
